Where a name gives a salt, the structure may show the parent alone. Read-outs that look alike come from different tables or passages of the source.
Legend:
[1] = target: human KATII enzyme (Homo sapiens, UniProt Q8N5Z0); test: KATII Kinetic Assay (kinact/KI determination); format: biochemical; conditions: read-out: hKATII kinact/KI
Experimental: The compounds of the present invention are irreversible inhibitors of KATII. Potency of irreversible inhibitors is best characterized by kinact/KI (See Copeland, R. A.; “Evaluation of Enzyme Inhibitors in Drug Discovery,” Wiley, 2005).
Test compounds were dissolved in 100% DMSO and diluted to the required concentrations in 100% DMSO. An additional aqueous dilution was made so that the compound at 3× final concentration was 1.0% DMSO in the assay specific buffer. Compounds were tested at 11 concentrations. Final DMSO concentrations in the assay plate were equal to 0.33%.
KATII enzyme activity was followed by measuring the loss of absorbance of the L-KYN substrate at an absorbance wavelength of 370 nm. The KATII assays were run in a 384 well format at a final volume of 30 μL using 150 mM Tris Acetate buffer (pH7.0), 1 mM L-KYN,1 mM α-ketoglutaric acid, 70 μM PLP, 0.1% BGG and either 30 nM human KATII enzyme or 5 nM rat KATII enzyme KATII enzyme. Compound was diluted in 100% DMSO and spotted prior to the addition of the other reagents. Enzyme was always added last. Assay plates were sealed around the edges with tape and immediately read on a SpectraMax plate reader at an absorbance wavelength of 370 nm. The SpectraMax plate reader was set up to read every 5 min for 16 hours.
The following steps are taken to ensure consistent production of kinetic read data: • 1. A 10 μL aliquot of the compound dilutions (described above in compound preparation) was added to the assay plate by hand followed by a quick spin to ensure compound was collected at bottom of well. • 2. A 10 μL aliquot of substrate mix containing the L-KYN, a-ketoglutaric acid and PLP was then added to the assay plate via a Multidrop instrument. • 3. Finally, a 10 μL aliquot of a 3× concentration of enzyme stock soluton was added last to initiate the reaction via a Multidrop instrument. • 4. The microplate lid was placed onto the assay plate and taped to seal in humidity, and the assay plate was put into the SpectraMax reader. A quick vibration on the plate platform was done to ensure mixing, and the absorbance was read (wavelength of 370 nm) every 5 min over 16 h at room temperature. Determination of Potencies (kinact/Kl Values)
The direct substrate absorbance loss assay described above was performed for the determination of potencies (kinact/Kl values). The overall potency, kinact/K1 values, were determined using the general approach described by M. Mileni et al., Proc. Natl. Acad. Sci. USA 2008, 105 12820-12824 and K. Ahn et al. Chem. Biol. 2009, 16, 411-420. Reaction progress curves (decrease in A370 nm with time) were obtained in the presence of eleven concentrations of inhibitor with top dose at […]. A null inhibitor control is always included. Absorbance read data were collected for 16 hours at 5 minute intervals. […] Each progress curve was fit to a one phase exponential decay model (equation 1) to determine kobserved (kobs) values at each inhibitor concentration, where At is absorbance at time t, A0 is the absorbance at t=infinite, A1 is a total absorbance change (the absorbance difference between t=0 and t=infinite), and kobs is the first order rate constant for enzyme inactivation. […] When [I]<<K1, equation 2 is simplified to equation 3, where the kinact/Kl is calculated from the slope, kinact/[Kl(1+[S]/Km)], which is obtained from the kobs vs [I] linear regression fit. […]

[2] = target: human KAT II (hKAT II) enzyme (Homo sapiens, UniProt Q8N5Z0); test: Human KAT II Inhibition Spectra Assay; format: biochemical
Experimental: Human KAT II Inhibition Spectra Assay Formation of kynurenic acid (KYNA) is indirectly assessed by a decrease in light absorbance at 370 nm (OD370) as the L-kynurenine (KYN) substrate is converted by the human KAT II (hKAT II) enzyme into KYNA. An inhibitor would therefore inhibit the decrease in OD370. The protocol was performed by placing the following reagents into a Costar 384 well black plate (30 μL total assay volume/well): • 10 μL of 3× concentrated compound; • 10 μL of 3× concentrated substrate mix (BGG (Sigma G-5009); 3 mM L-Kynurenine in 150 mM Tris Acetate (Sigma K3750); 3 mM α-ketoglutaric acid in 150 mM Tris Acetate (Sigma K2010); and 210 μM pyridoxal 5-phosphate (PLP) in 150 mM Tris Acetate (Sigma 9255)); and • 10 μL of 3× concentrated enzyme (15 nM enzyme in 150 mM Tris Acetate with 0.3% bovine serum). Plates were sealed and incubated at 37° C. for 15-20 h before reading OD370 on a SpectraMax Plus plate reader. IC50s were generated by comparing the efficacy of compounds across a concentration range to inhibit a reduction in the OD370 value relative to assay wells with DMSO added in place of concentrated compound. Biological data for the Examples may be found Tables 1 and 2.

[3] = tested on: human hepatocytes; test: Human Hepatocyte Assay (HHEP); format: in vitro ADME; conditions: 1 μM test compound, 0.5 million viable cells/mL
[4] = Pharmacokinetics Studies in Dog; format: in vivo; set-up: AUC/dose: unit not given beside the values; conditions: dogs; for AUC / C0 / clearance / half-life / Cmax: male, beagle, dog, plasma
Experimental: Pharmacokinetics Studies in Dog Test substances (Examples 2-3) were administered by oral gavage or IV administration to groups of two dogs. The two male dogs were beagles obtained from Marshal Farms, weighing from about 9 to about 12 kg at start of treatment and ranging in age between approximately 4 to approximately 6 years. Blood samples were taken times of 0.25, 0.5, 1, 2, 4, 7, and 24 h after administration and submitted to analysis for the drug substance using an LC-MS-MS assay. Pharmacokinetic parameters derived from the plasma analytical data were determined using Watson 7.2.003.

[5] = Reactive Metabolite Assay; format: in vitro ADME
Experimental: [formula] Reactive Metabolite Assay Protocol Metabolite activity in Table 2 is measured using a reactive metabolite assay protocol as described in Reactive Metabolite assay protocol: See J. R. Soglia et al., J. Pharm. Biomed. Anal. 2004, 36, 105-116.

[6] = OD370 readout, 37° C., 15-20 h incubation, read-out: hKATII IC50
[7] = IV administration, dose = 0.5 mg/kg
[8] = oral administration, dose 5 mg/kg (Ex 3, 2), 2 mg/kg (Ex 5)

Chain of human KATII enzyme (Q8N5Z0 30-425): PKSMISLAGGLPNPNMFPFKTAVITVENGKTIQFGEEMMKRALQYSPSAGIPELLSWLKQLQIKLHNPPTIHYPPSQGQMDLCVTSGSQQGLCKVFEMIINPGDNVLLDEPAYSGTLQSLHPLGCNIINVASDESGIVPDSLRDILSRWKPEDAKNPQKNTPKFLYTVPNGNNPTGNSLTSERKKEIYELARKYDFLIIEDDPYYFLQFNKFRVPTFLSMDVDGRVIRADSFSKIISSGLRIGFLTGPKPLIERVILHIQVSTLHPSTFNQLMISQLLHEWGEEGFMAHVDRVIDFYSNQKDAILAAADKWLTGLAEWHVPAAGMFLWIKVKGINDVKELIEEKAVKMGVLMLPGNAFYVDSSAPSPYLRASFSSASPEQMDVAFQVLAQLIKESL
Chain of human KAT II (hKAT II) enzyme (Q8N5Z0 30-425): as above

Structure (SMILES)	kinact/KI [1] [M⁻¹ s⁻¹]	IC50 [2, 6] [nM]	HHEP CLint, app [3] [μL/min/million]	AUC/dose [4, 7]	AUC/dose [4, 8]	Cmax/dose [4, 8]	AUC [4, 7] [ng·h/mL]	C0 [4, 7] [ng/mL]	clearance [4, 7] [mL/min/kg]	half-life [4, 7] [min]	AUC [4, 8] [ng·h/mL]	Cmax [4, 8] [ng/mL]	half-life [4, 8] [min]	Reactive Metabolite Formation [5]	IC50 [2] [nM]	kinact/KI ([1]; 30 nM human KATII enzyme, room temperature) [M⁻¹ s⁻¹]
N[C@H]1Cc2ccccc2N(O)C1=O [Example 4, (3S)-3-Amino-1-hydroxy-3,4-dihydroquinolin-2(1H)-one]	21500	27	39.6	–	–	–	–	–	–	–	–	–	–	–	–	–
CC(C)Oc1ccc2c(c1)N(O)C(=O)[C@@H](N)C2 [Example 5, (3S)-3-Amino-1-hydroxy-7-isopropoxy-3,4-dihydroquinolin-2(1H)-one, HCl Salt]	17100	–	44.7	436	9.3	9.8	218	265	38.7	36	18.6	19.6	27.6	Yes	32	–
N#Cc1ccc2c(c1)N(O)C(=O)[C@@H](N)C2 [Example 1, (3S)-3-Amino-1-hydroxy-2-oxo-1,2,3,4-tetrahydroquinoline-7-carbonitrile, HCl Salt]	46200	19	24.8	–	–	–	–	–	–	–	–	–	–	–	–	–
COCCOc1ccc2c(c1)N(O)C(=O)[C@@H](N)C2 [Example 3, (3S)-3-Amino-1-hydroxy-7-(2-methoxyethoxy)-3,4-dihydroquinolin-2(1H)-one, HCl Salt]	–	22	30.1	388	31.2	39.6	194	446	43.4	54	156	198	63	No	–	22300
COC[C@H](C)Oc1ccc2c(c1)N(O)C(=O)[C@@H](N)C2 [Example 2, (3S)-3-Amino-1-hydroxy-7-[(1S)-2-methoxy-1-methylethoxy]-3,4-dihydroquinolin-2(1H)-one, HCl Salt]	25100	18	19.8	370	39	46	185	352	44.9	30	195	229	137	No	–	–
N#Cc1cccc2c1N(O)C(=O)C(N)C2 (stereo not shown) [Example 6, 3-Amino-1-hydroxy-2-oxo-1,2,3,4-tetrahydroquinoline-8-carbonitrile, HCl Salt]	–	30	–	–	–	–	–	–	–	–	–	–	–	–	–	–

From patent publication US8487104B2, “KAT II inhibitors” (Pfizer Inc., priority 2010, dated 2013)
